Laboratory results: patent publication US8076285B2, “Lysobactin amides” (Aicuris GmbH & Co. KG, priority 2006, dated 2011)
≈ marks a conversion by molar mass, not a printed value. Read-outs that look alike come from different tables or passages of the source. Values belong to the compound of their own block, whether it stands above or below them. *1 amine or outer side, *2 acyl side, *3 side chain or, on linkers, in order; H or OH if unused. Where a SMILES comes first, the peptide text is derived from it. Bridges are numbered along the chain shown (N, C = ends). [ ]: non-standard residue; d: D form. ξ: configuration not given here. Phe(βR-NH) = O=C([C@@H](N[*:1])[C@H](N[*:3])c1ccccc1)[*:2]; Leu(3R-OH) = CC(C)[C@@H](O)[C@H](N)C(=O)O; X1 = NC(=O)[C@@H](O)C(N[*:1])C(=O)[*:2]; d(tBuAla) = CC(C)(C)C[C@@H](N)C(=O)O; tBuAla = CC(C)(C)C[C@H](N)C(=O)O; aThr = C[C@H](O)[C@H](N)C(=O)O; ξA = CC(N)C(=O)O

Assays:
[1] = amide bond, 28-membered ring
[2] = test system: Enterococcus faecalis 27159; type: cell-based; conditions: 27159
Procedure: (§1) Determination of the Minimum Inhibitory Concentration (MIC):
(§2) The MIC is determined in the liquid dilution test in accordance with the NCCLS guidelines. Overnight cultures of Staphylococcus aureus 133, Enterococcus faecalis 27159, E. faecium 4147 and Streptococcus pneumoniae G9a are incubated with the described test substances in a 1:2 dilution series. The MIC determination is carried out with a cell count of 10^5 microbes per ml in Isosensitest medium (Difco, Irvine/USA), with the exception of S. pneumoniae which is tested in BHI broth (Difco, Irvine/USA) with 10% bovine serum with a cell count of 10^6 microbes per ml. The cultures are incubated at 37° C. for 18-24 hours, S. pneumoniae in the presence of 10% CO2.
(§3) The MIC is defined as the lowest concentration of each substance at which no visible bacterial growth occurs any longer. The MIC values are reported in μg/ml.

[3] = test system: Streptococcus pneumoniae G9a; type: cell-based; conditions: G9a
Procedure: as §1, §2, §3

[4] = test system: Staphylococcus aureus 133; type: cell-based; conditions: 133
Procedure: as §1, §2, §3

[5] = amide bond, 28-membered ring; remark: listed apart in the source

Compound: CC[C@H](C)[C@@H]1NC(=O)[C@@H](CCCNC(=N)N)NC(=O)[C@H](CC(C)C)NC(=O)[C@H]([C@H](O)C(C)C)NC(=O)[C@@H](NC(=O)OCc2ccccc2)[C@@H](c2ccc(N(C)C)cc2)NC(=O)[C@H](CO)NC(=O)[C@H]([C@H](O)C(N)=O)NC(=O)CNC(=O)[C@H]([C@H](C)O)NC1=O
ring closure, yield after HPLC ([1]; from H-[N3-amine free, N2-Cbz-(3R)-3-amino-Phe(4-NMe2)]-[(3R)-3-OH-Leu]-Leu-dArg-Ile-aThr-Gly-[(3S)-3-OH-Asn]-Ser-OH, HATU/NMM, DMF, 9.3 mM): 52%

Compound: CC[C@H](C)[C@@H]1NC(=O)[C@@H](CCCNC(=N)N)NC(=O)[C@H](CC(C)C)NC(=O)[C@H]([C@H](O)C(C)C)NC(=O)[C@@H](NC(=O)[C@H](CC(C)C)NC(=O)[C@@H](CC(C)C)NC(=O)OCc2ccccc2)[C@@H](c2ccccc2)NC(=O)[C@H](CO)NC(=O)[C@H](CC(N)=O)NC(=O)CNC(=O)[C@H]([C@@H](C)O)NC1=O
ring closure, yield after HPLC ([1]; from Z-dLeu-Leu-(3R)3-amino-Phe(free 3-NH2)-(3R)3-OH-Leu-Leu-dArg-Ile-Thr-Gly-Asn-Ser-OH, HATU/NMM, DMF, 25.0 °C): 88.3%

Compound: CC[C@H](C)[C@@H]1NC(=O)[C@@H](CCCNC(=N)N)NC(=O)[C@H](CC(C)C)NC(=O)[C@H]([C@H](O)C(C)C)NC(=O)[C@@H](NC(=O)OCc2ccccc2)[C@@H](c2ccccc2)NC(=O)[C@H](CO)NC(=O)[C@H](Cc2cccnc2)NC(=O)CNC(=O)[C@H]([C@H](C)O)NC1=O
ring closure, yield after HPLC ([1]; from Z-Phe((3R)-3-NH2)-Leu((3R)-3-OH)-Leu-dArg-Ile-aThr-Gly-Ala(3-pyridyl)-Ser-OH, HATU/NMM, DMF, 0.0 °C): 51%

Compound: CC[C@H](C)[C@@H]1NC(=O)[C@@H](CCCNC(=N)N)NC(=O)[C@H](CC(C)C)NC(=O)[C@H]([C@H](O)C(C)C)NC(=O)[C@@H](NC(=O)OCc2ccccc2)[C@@H](c2ccccc2)NC(=O)[C@H](CO)NC(=O)[C@H]([C@@H](C)O)NC(=O)CNC(=O)[C@H]([C@H](C)O)NC1=O
ring closure, yield after HPLC ([1]; from Z-Phe((3R)-3-NH2)-Leu((3R)-3-OH)-Leu-dArg-Ile-aThr-Gly-Thr-Ser-OH?, HATU/NMM, DMF, 0.0 °C): 65%

Compound: CC[C@H](C)[C@@H]1NC(=O)[C@@H](CCCN(C(=N)NC(=O)OCc2ccccc2)C(=O)OCc2ccccc2)NC(=O)[C@H](CC(C)C)NC(=O)[C@H]([C@H](O)C(C)C)NC(=O)[C@@H](NC(=O)[C@H](CC(C)(C)C)NC(=O)[C@@H](CC(C)(C)C)NC(=O)OCc2ccccc2)[C@@H](c2ccccc2)NC(=O)[C@H](CO)NC(=O)[C@H](CC(N)=O)NC(=O)CNC(=O)[C@H]([C@H](C)O)NC1=O
ring closure, yield after HPLC ([1]; from Z-dAla(3-tBu)-Ala(3-tBu)-(3R)3-amino-Phe(free 3-NH2)-(3R)3-OH-Leu-Leu-dArg(Z)2-Ile-aThr-Gly-Asn-Ser-OH, HATU/NMM, DMF, 1.1 mM, 25.0 °C): 90.1%

Compound: CC[C@H](C)[C@@H]1NC(=O)[C@@H](CCCNC(=N)N)NC(=O)[C@H](CC(C)C)NC(=O)[C@H]([C@H](O)C(C)C)NC(=O)[C@@H](NC(=O)[C@H](CC(C)(C)C)NC(=O)[C@@H](CC(C)(C)C)NC(=O)OCc2ccccc2)[C@@H](c2ccccc2)NC(=O)[C@H](CO)NC(=O)[C@H](CC(N)=O)NC(=O)CNC(=O)[C@H]([C@H](C)O)NC1=O
ring closure, yield after HPLC ([1]; from Z-dAla(3-tBu)-Ala(3-tBu)-(3R)3-amino-Phe(free 3-NH2)-(3R)3-OH-Leu-Leu-dArg-Ile-aThr-Gly-Asn-Ser-OH, HATU/NMM, DMF, 1.14 mM, 4.0 °C): 80%

Compound: CC[C@H](C)[C@@H]1NC(=O)[C@@H](CCCNC(=N)N)NC(=O)[C@H](CC(C)C)NC(=O)[C@H]([C@H](O)C(C)C)NC(=O)[C@@H](NC(=O)OCc2ccccc2)[C@@H](c2ccccc2)NC(=O)[C@H](CO)NC(=O)[C@H](CO)NC(=O)CNC(=O)[C@H]([C@H](C)O)NC1=O
ring closure, yield after HPLC ([1]; from Z-Phe((3R)-3-NH2)-Leu((3R)-3-OH)-Leu-dArg-Ile-aThr-Gly-Ser-Ser-OH, HATU/NMM, DMF, 19.4 mM, 0.0 °C): 43%

MIC E. faecalis ICB 27159 [2]: 0.5 mg/L (≈ 0.388 µM)
MIC S. pneumoniae G9a [3]: 0.125 mg/L (≈ 0.0969 µM)
MIC S. aureus 133 [4]: 0.25 mg/L (≈ 0.194 µM)
Compound: CC[C@H](C)[C@@H]1NC(=O)[C@@H](CCCNC(=N)N)NC(=O)[C@H](CC(C)C)NC(=O)[C@H]([C@H](O)C(C)C)NC(=O)[C@@H](NC(=O)[C@H](CC(C)(C)C)NC(=O)[C@H](N)CC(C)(C)C)[C@@H](c2ccccc2)NC(=O)[C@H](CO)NC(=O)C([C@H](O)C(N)=O)NC(=O)CNC(=O)[C@H](CO)NC1=O (stereo partly drawn) [Example 14, [3-tert-Butyl-D-alanyl]-[3-tert-butyl-L-alanyl]-[(3R)-3-amino-L-phenylalanyl]-[(3R)-3-hydroxy-L-leucyl]-L-leucyl-D-arginyl-L-isoleucyl-L-seryl-glycyl-[(3S)-3-hydroxy-L-asparaginyl]-L-serine C^1.11-N^3.3-lactam bistrifluoroacetate] (H-[d(tBuAla)][tBuAla][Phe(βR-NH)][Leu(3R-OH)]L[dR]ISG[X1]S; lactam 3-C)

MIC E. faecalis ICB 27159 [2]: 0.5 mg/L (≈ 0.402 µM)
MIC S. pneumoniae G9a [3]: 0.5 mg/L (≈ 0.402 µM)
MIC S. aureus 133 [4]: 0.25 mg/L (≈ 0.201 µM)
Compound: CC[C@H](C)[C@@H]1NC(=O)[C@@H](CCCNC(=N)N)NC(=O)[C@H](CC(C)C)NC(=O)[C@H]([C@H](O)C(C)C)NC(=O)[C@@H](NC(=O)[C@H](CC(C)(C)C)NC(=O)[C@H](N)CC(C)(C)C)[C@@H](c2ccccc2)NC(=O)[C@H](CO)NC(=O)C(C)NC(=O)CNC(=O)[C@H]([C@H](C)O)NC1=O (stereo partly drawn) [Example 13, [3-tert-Butyl-D-alanyl]-[3-tert-butyl-L-alanyl]-[(3R)-3-amino-L-phenylalanyl]-[(3R)-3-hydroxy-L-leucyl]-L-leucyl-D-arginyl-L-isoleucyl-L-allothreonyl-glycyl-L-alanyl-L-serine C^1.11-N^3.3-lactam bistrifluoroacetate] (H-[d(tBuAla)][tBuAla][Phe(βR-NH)][Leu(3R-OH)]L[dR]I[aThr]G[ξA]S; lactam 3-C)

Compound: CC[C@H](C)[C@@H]1NC(=O)[C@@H](CCCNC(=O)OCc2ccccc2)NC(=O)[C@H](CC(C)C)NC(=O)[C@H]([C@H](O)C(C)C)NC(=O)[C@@H](NC(=O)[C@H](CC(C)(C)C)NC(=O)[C@@H](CC(C)(C)C)NC(=O)OCc2ccccc2)[C@@H](c2ccccc2)NC(=O)[C@H](CO)NC(=O)[C@H](CC(N)=O)NC(=O)CNC(=O)[C@H]([C@H](C)O)NC1=O
ring closure, yield after HPLC ([1]; from Z-dAla(3-tBu)-Ala(3-tBu)-(3R)3-amino-Phe(free 3-NH2)-(3R)3-OH-Leu-Leu-dOrn(Z)-Ile-aThr-Gly-Asn-Ser-OH, HATU/NMM, DMF, 4.0 °C): 91.3%

Compound: CC[C@H](C)[C@@H]1NC(=O)[C@@H](CCCNC(=N)N)NC(=O)[C@H](CC(C)C)NC(=O)[C@H]([C@H](O)C(C)C)NC(=O)[C@@H](NC(=O)OCc2ccccc2)[C@@H](c2ccccc2)NC(=O)[C@H](CO)NC(=O)[C@H](Cc2ccccc2)NC(=O)CNC(=O)[C@H]([C@H](C)O)NC1=O
ring closure, yield after HPLC ([1]; from Z-Phe((3R)-3-NH2)-Leu((3R)-3-OH)-Leu-dArg-Ile-aThr-Gly-Phe-Ser-OH?, HATU/NMM, DMF, 0.0 °C): 96%

Compound: N^2.1-(Benzyloxycarbonyl)-[(3R)-3-amino-L-alanyl)]-[(3R)-3-hydroxy-L-leucyl]-L-leucyl-D-arginyl-L-isoleucyl-L-allothreonyl-glycyl-[(3S)-3-hydroxy-L-asparaginyl]-L-serine C^1.9-N^3.1-lactam hydrochloride
ring closure, yield after HPLC ([1]; Et3N (Pfp ester), CHCl3, 0.11 mM, 3 steps): 15.9%

Compound: [(3R)-N^2-(Benzyloxycarbonyl)-3-amino-L-phenylalanyl]-[(3R)-3-hydroxy-L-leucyl]-L-leucyl-D-arginyl-L-isoleucyl-L-allothreonyl-D-seryl-L-seryl-L-serine C^1.9-N^3.1-lactam trifluoroacetate
ring closure, isolated yield [5]: 93%

Compound: N^2.1-(Benzyloxycarbonyl)-[(3S)-3-amino-O-methyl-D-tyrosyl)]-[(3R)-3-hydroxy-L-leucyl]-L-leucyl-D-arginyl-L-isoleucyl-L-allothreonyl-glycyl-[(3S)-3-hydroxy-L-asparaginyl]-L-serine C^1.9-N^3.1-lactam trifluoroacetate
ring closure, isolated yield ([5]; HATU/NMM, DMF, 7.5 mM, 0.0 °C): 96%

Compound: CC[C@H](C)[C@@H]1NC(=O)[C@@H](CCCNC(=N)N)NC(=O)[C@H](CC(C)C)NC(=O)[C@H]([C@H](O)C(C)C)NC(=O)[C@@H](NC(=O)OCc2ccccc2)[C@@H](c2ccccc2)NC(=O)[C@H](CO)NC(=O)[C@H]([C@H](O)C(N)=O)NC(=O)CNC(=O)[C@H]([C@H](C)O)NC1=O
ring closure, yield after HPLC ([1]; from Z-(3R)-3-amino-Phe-(3R)-3-hydroxy-Leu-Leu-dArg-Ile-alloThr-Gly-(3S)-3-hydroxy-Asn-Ser-OH, HATU/NMM, DMF, 1.27 mM, 0.0 °C): 78.3%
